Source: patent US5155130A, “Certain benzopyran and benzothiopyran derivatives” (Ciba-Geigy Corporation, priority 1990, dated 1992)

Columns and labels:
5-lipoxygenase [1] = target: T1, 5-lipoxygenase (Cavia porcellus, UniProt A0A286X958); assay: Inhibition of 5-HETE and LTB4 synthesis in A-23187-stimulated guinea pig polymorphonuclear leukocytes; assay type: cell-based; conditions: read-out: IC50 for inhibition of the formation of 5-HETE and leukotriene B4 (LTB4)
T1 construct: A-23187-stimulated guinea pig polymorphonuclear leukocytes; endogenous in cells; host or cells: guinea pig polymorphonuclear leukocytes
T1 sequence (A0A286X958 1-674): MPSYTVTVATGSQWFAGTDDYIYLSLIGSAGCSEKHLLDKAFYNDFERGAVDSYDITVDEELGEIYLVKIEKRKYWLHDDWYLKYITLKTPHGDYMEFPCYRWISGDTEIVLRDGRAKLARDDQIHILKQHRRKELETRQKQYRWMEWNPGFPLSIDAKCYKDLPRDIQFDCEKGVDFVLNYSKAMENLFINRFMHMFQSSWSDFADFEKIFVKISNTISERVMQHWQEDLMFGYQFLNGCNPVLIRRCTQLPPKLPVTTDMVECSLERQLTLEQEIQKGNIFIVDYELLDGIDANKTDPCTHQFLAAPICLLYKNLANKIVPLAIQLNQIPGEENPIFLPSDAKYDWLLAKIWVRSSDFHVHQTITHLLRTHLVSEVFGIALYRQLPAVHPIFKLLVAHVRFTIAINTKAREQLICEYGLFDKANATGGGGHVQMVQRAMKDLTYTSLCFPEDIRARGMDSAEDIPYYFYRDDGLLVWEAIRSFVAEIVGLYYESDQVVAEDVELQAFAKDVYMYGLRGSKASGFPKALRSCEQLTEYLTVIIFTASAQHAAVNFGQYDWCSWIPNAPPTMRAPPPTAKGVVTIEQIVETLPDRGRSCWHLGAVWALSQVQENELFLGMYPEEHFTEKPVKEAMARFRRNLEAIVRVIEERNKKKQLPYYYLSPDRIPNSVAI
Method: 5-Lipoxygenase inhibition is determined e.g. by measuring the percent inhibition of the synthesis of 5-HETE [(5S)-5-hydroxy-6,8,11,14-eicosa-tetraenoic acid] and leukotriene B4 (LTB4, 5,12-dihydroxy-6,8,10,14-eicosatetraenoic acid) in A-23187-stimulated guinea pig polymorphonuclear leukocytes, essentially according to radiometric thin-layer chromatographic assays described by Walker and Dawson (J. Pharm. Pharmacol. 31: 778, 1979) and Jakschik and Lee (Nature 287: 51, 1980) to measure the formation of 5-HETE and LTB4 -like products from ^14 C-arachidonic acid. IC50 values are determined graphically as the concentration of test compound at which the synthesis of 5-HETE and LTB4 -like products is reduced to 50% of their respective control values.

5-lipoxygenase [2] = assay: Ex vivo A-23187-stimulated LTB4 formation in whole blood after oral administration; conditions: dog, about 0.3 mg/kg p.o.
Method: Furthermore, the inhibition of 5-lipoxygenase is determined after oral or i.v. administration to rats or dogs by measuring ex vivo in whole blood the decrease of A-23187-stimulated LTB4 formation as compared to non-treated control animals.

[3] = system: rat pleurisy model of inflammation; assay: Carrageenin-induced pleurisy model of inflammation; assay type: in vivo; conditions: 10 mg/kg p.o. at -1, 6, 24 and 45 hours relative to carrageenin injection, 48 hours after injection
Source text: 214, 74 (1980), in particular during the late phase of the corrageenin-induced pleurisy.

[4] = system: rat chronic colitis model; assay: Trinitrobenzenesulfonic acid-induced chronic colitis model; assay type: in vivo; conditions: 100 mg/kg p.o. for 4 days
Source text: The trinitrobenzenesulfonic acid-induced chronic colitis test in the rat, e.g. as described by Wallace et al, Gastroenterology 1989, 96, 29-36, can be used to evaluate compounds for effects indicative of utility in inflammatory bowel diseases.

| SMILES | IC50 (5-lipoxygenase [1]) [nM] | inhibition of LTB4 formation as determined ex vivo (5-lipoxygenase [2]) | cell count of leukocytes [3] | inhibition of exudate volume [3] | inhibition of colitis [4] |
| --- | --- | --- | --- | --- | --- |
| NC(=O)N(O)CC1=Cc2cc(Oc3ccccc3)ccc2OC1 [2(d), 3-[(N-Aminocarbonyl-N-hydroxy)aminomethyl]-6-phenoxy-2H-1-benzopyran] | ~50 | significant inhibition | lower | inhibition | inhibits colitis |
| CNC(=O)N(O)CC1=Cc2cc(Oc3ccc(F)cc3)ccc2OC1 [5(f), 3-[{N-(N'-methylaminocarbonyl)-N-hydroxy}aminomethyl]-6-(p-fluorophenoxy)-2H-1-benzopyran] | – | significant inhibition | lower | inhibition | – |
